According to patent publication US7067533B2, “Aminophenoxyacetamide derivatives and pharmaceutical composition containing thereof” (Daiichi Asubio Pharma Co., Ltd., priority 2000, dated 2006):

Tests used:
[1] = system: primary cultures (neurons) from cerebral cortices of fetal Wistar rats; assay: Biological Test 1: neuroprotective effect against glutamate induced neuronal cell death (MTT); format: cell-based, rat; conditions: Compound: 1 μM; glutamate 1 mM; control group = 100%
Procedure: Cultures were maintained at 37 C. in a 90% air/10% CO2 humidified incubator. Glutamate was added to the culture at day 4 to the final concentration of 1 mM. […] MTT was dissolved in phosphate buffered saline (PBS, pH 7.4) at 5 mg/ml and filtered to sterilize and remove a small amount of insoluble residue present in some batches of MTT, and added to the cultures at a final concentration of 0.5 mg/ml.
The test compounds (1 μM) was added 24 hrs prior to glutamate treatment and simultaneously with glutamate.
Survival rate of living cells (%) =[(test compound group—glutamic acid treated group)÷(control group—glutamic acid treated group)]×100

[2] = system: primary cultures (neurons) from cerebral cortices of fetal Wistar rats; assay: Biological Test 2: antagonism of the neuroprotective effect by MTA treatment (MTT); format: cell-based, rat; conditions: 0.75 mM MTA added 30 minutes before test compound, glutamate
Procedure: This biological test is performed to determine whether the neuroprotective effect of the test compounds is due to the activation of receptors of physiological active substances or not, by using antagonistic test for neutralizing antibody and Inhibitor for FGF, NT-3, NT-4/5, BDNF, IGF-I/II, NGF, PDGF and estrogen, respectively.
Chem., 268, 4244 (1993)]. Therefore, the neuroprotective effect of the test compounds is inhibited by treatment of MTA, this effect is depended by the signal transfer effect through the phosphorylation of FGF receptor.
The inhibitors of the various kinds of receptor were dissolved in the optimum concentration, and MTA was dissolved in the concentration of 7.5 mM, just before the using. 30 minutes before the treatment of the test compounds, the optimum concentration of each inhibitors or 0.75 mM of MTA was added, and the neuroprotective effect of the test compounds was determined by mean of MTT method.

[3] = system: cerebral edema (water content of cerebral hemisphere), Wistar rats; assay: Biological Test 5: cerebral edema suppressing effect; format: in vivo; conditions: iv, 144 h, rat, post-TBI day 6, read-out: Cerebral edema suppressing rate (%); for inhibition in vivo at 3 mg/kg: 3 mg/kg intravenously just after the operation; for inhibition in vivo at 1 mg/kg: 1 mg/kg intravenously just after the operation
Procedure: Adult male Wistar rats weighing 210–230 g were used in the present study and housed in an artificially controlled environment with 12-hour light/dark cycle. Animals were anesthetized with pentobarbital sodium (50 mg/kg of body weight, i.p., Nembutal, Dinabbott, Japan) and placed in a stereotaxic apparatus. The skull was exposed and a hole was made on the parietal bone; 1.5 mm posterior and 0.8 mm lateral to the bregma. All procedures were performed under a surgery microscope to avoid excess irritation to the meninges and the underlying brain. A brass screw with a blunt tip (1.0 mm in diameter and 3.0 mm in length, Biomedica, Japan) was inset in the hole. The screw tip protruding intracranially was approximately 2.5 mm, which stuck into the parietal part of the right cerebrum through the meninges. In sham-operated rats, scalp was closed without attaching a screw to the hole. After surgery, all rats were kept in their original dens until sacrifice. Rats were allowed to feed chow and water ad libitum.
Under anesthesia the rat cerebral hemispheres of the target were processed for water content on post-TBI day 6 (n=6). The cerebral hemispheres dissected out were weighed, dried for 24 hours at 110 degree (Celsius) and then weighed again. The subtracted amount of the wet and dry weights was regarded as tissue water of the target, and utilized for the analysis of the cerebral edema.
The water content was calculated by using the following formula:
Water content (%) =[(wet weight of hemisphere—dry weight of hemisphere)/wet weight of hemisphere]×100
The test compounds were intravenously administered just after the operation via tail vein of the rats.

CalbindinD-28k = assay: Biological Test 3: CalbindinD-28k inducing effect (western blot); format: cell-based, rat; conditions: control (none-treated) = 100
Procedure: Test compounds were added 5 days after initiation of the incubation, and after 7 days of incubation, the protein was extracted with homogenized buffer solution [containing 20 mm of Tris-HCl (pH=7.4), 1 mM of EDTA, and 0.1 mM of phenylmethyl-sulfonyl fluoride].
In the table, the amount of induced CalbindinD-28k of the control group (none-treated group) was 4indicated as 100 percents.

[4] = system: primary cultures (neurons) from cerebral cortices of fetal Wistar rats; assay: Biological Test 4: neuroprotective inhibiting effect by calbindin antisense oligonucleotide (MTT); format: cell-based, rat; conditions: 300 μM glutamic acid

| Structure (SMILES) | Survival Rate (%) (Compound: 1 μl) [1] | Survival Rate (%) (Compound: 1 μl & MTA treatment) [2] | inhibition in vivo at 3 mg/kg [3] [%] | Amount of induced CalbindineD-28k (% vs. control) (Compound: 1 μM) (CalbindinD-28k) | Survival Rate (%) [antisense (+): 5 μM] ([4]; 0.1 μM) [%] | Survival Rate (%) [antisense (−)] ([4]; 0.1 μM) [%] | Survival Rate (%) [antisense (+): 5 μM] ([4]; 1 μM) [%] | Survival Rate (%) [antisense (−)] ([4]; 1 μM) [%] | inhibition in vivo at 1 mg/kg [3] [%] |
| --- | --- | --- | --- | --- | --- | --- | --- | --- | --- |
| Cc1c(C)c(OCC(=O)N(C)C2CCN(C[C@@H]3C[C@H]3c3ccccc3)CC2)c(C)c(C)c1N (relative stereo) [Compound 13, 2-(4-Amino-2,3,5,6-tetramethylphenoxy)-N-methyl-N-[1-(trans-2-phenyl-1-cyclopropylmethyl)-4-piperidinyl]acetamide] | 65 | 13 | 13.1 | – | – | – | – | – | – |
| Cc1c(C)c(OCC(=O)N(C)C2CCN(CCc3ccccc3)CC2)c(C)c(C)c1N [Compound 6, 2-(4-Amino-2,3,5,6-tetramethylphenoxy)-N-methyl-N-(1-phenethyl-4-piperidinyl)acetamide] | 54 | 25 | 24.9 | 163 | 30 | 103 | 34 | 108 | – |
| Cc1c(C)c(OCC(=O)N(C)C2CCN(C(=O)c3ccccc3)CC2)c(C)c(C)c1N [Compound 8, 2-(4-Amino-2,3,5,6-tetramethylphenoxy)-N-(1-benzoyl-4-piperidinyl)-N-methylacetamide] | 78 | 24 | – | – | – | – | – | – | 14 |
| Cc1c(C)c(OCC(=O)N(C)C2CCN(CC3CC3)CC2)c(C)c(C)c1N [Compound 12, 2-(4-Amino-2,3,5,6-tetramethylphenoxy)-N-(1-cyclo-propylmethyl-4-piperidinyl)-N-methylacetamide] | 54 | 33 | 14.7 | – | – | – | – | – | – |
| Cc1c(C)c(OCC(=O)N(C)C2CCN(Cc3ccc(C#N)cc3)CC2)c(C)c(C)c1N [Compound 18, 2-(4-Amino-2,3,5,6-tetramethylphenoxy)-N-[1-(4-cyano-benzyl)-4-piperidinyl]-N-methylacetamide] | 91 | 57 | – | – | – | – | – | – | 22.1 |
| CCCCN1CCC(N(C)C(=O)C(C)Oc2c(C)c(C)c(N)c(C)c2C)CC1 (centres unmarked) [Compound 24, 2-(4-Amino-2,3,5,6-tetramethylphenoxy)-N-(1-butyl-4-piperidinyl)-N-methylpropanamide] | 61 | 22 | – | – | – | – | – | – | 10.6 |
| Cc1c(C)c(OC(C)C(=O)N(C)C2CCN(CCN3CCOCC3)CC2)c(C)c(C)c1N (centres unmarked) [Compound 25, 2-(4-Amino-2,3,5,6-tetramethylphenoxy)-N-methy-N-{1-[2-(4-morpholinyl)ethyl]-4-piperidinyl}proanamide] | 87 | 16 | – | – | – | – | – | – | 19.1 |
